The test system of assay [1] is Cryptococcus neoformans. The assay is described as follows: in vitro antifungal susceptibility testing (MIC, MFC; broth macrodilution), Tables 1-7. The format is cell-based. Conditions: for MIC: read-out: MIC80 (Minimum inhibitory concentration 80%); for MFC: read-out: MFC (Minimum fungicidal concentration). An excerpt: (§1) The fungi that were employed included two reference strains, C. neoformans var. neoformans H99 and C. albicans A39 and the following clinical isolates: (1) two strains of fluconazole-resistant C. neoformans var. neoformans (135.95 and 114.96); (2) two strains of C. neoformans var. gattii (119.95 and 114.95); (3) two strains of fluconazole-resistant C. albicans (102.96 and 103.96); and (4) one strain each of Torulopsis glabrata (142.91), Candida parapsilosis (111.96), Candida krusei (132.91), C. tropicalis (110.96), Candida lusitaniae (111.92), Fusarium solani (152.89), Aspergillus fumigatus (168.95), and Aspergillus flavus (112.96). Antifungal susceptibility testing was performed using an RPMI-1640 medium (Sigma Chemical Co., St. Louis, Mo.) with glutamine, without sodium bicarbonate, and buffered at pH 7.0 with 0.165 M morpholine-propanesulfonic acid (MOPS).
(§2) In vitro susceptibility testing in the form of Minimum Inhibitory Concentration (MIC) experiments were performed using the broth macrodilution method according to the recommendations of the National Committee for Clinical Laboratory Standards (see 1995 manual). The only difference compared to the standardized procedure was the choice of drug dilutions ranging from 100 to 0.09 μg/ml. Briefly, this procedure specifies an inoculum grown at 35° C. and adjusted to a concentration of 0.5-2.5×10^3 CFU/ml with an incubation of the test performed at 35° C. and reading at 48 hours for all yeasts except for C. neoformans which is interpreted at 72 hr.
(§3) Minimum Fungicidal Concentration (MFC) experiments were adapted from a method by McGinnis (McGinnis, M. R., (1980) "Susceptibility testing and bioassay procedure", p. 431, Academic Press, Inc., New York). Briefly, 10 μl aliquots from tubes with growth inhibition were plated onto Sabouraud agar plates.
(§4) The fungi that were employed included two quality control reference strains, C. neoformans var. neoformansH99 and C. albicans A39 and the following clinical isolates: (1) four strains of C. neoformans var. neoformans (167.95; 135.95; 114.96; and 133.95) of which three were fluconazole-resistant>64 μg/ml (135.95; 114.96; and 133.95); (2) two strains of C. neoformans var. gattii (119.95 and 114.95); (3) two strains of fluconazole-resistant>64 μg/ml C. albicans (102.96 and 103.96); and (4) one strain each of C. glabrata (142.91), Candida parapsilosis (111.96), Candida krusei (132.91), C. tropicalis (110.96), Candida lusitaniae (111.92), Fusarium solani (152.89), Aspergillus fumigatus (168.95), Rhizopus arrhizus (117.89), Paecilomyces lilacinus (137.90), and Aspergillus flavus (112.96). Antifungal susceptibility testing was performed using an RPMI-1640 medium (Sigma Chemical Co., St. Louis, Mo.) with glutamine, without sodium bicarbonate, and buffered at pH 7.0 with 0.165 M morpholinepropanesulfonic acid (MOPS).
(§5) Minimum Fungicidal Concentration (MFC) experiments were adapted from a method by McGinnis (McGinnis, M. R., (1980) "Susceptibility testing and bioassay procedure", p.431, Academic Press, Inc., New York). Briefly, 10 μl aliquots from tubes with growth inhibition were plated onto Sabouraud agar plates.

The test system of assay [2] is Candida albicans. The description is as above. The format is cell-based. The following applies: for MIC: read-out: MIC80 (Minimum inhibitory concentration 80%); for MFC: three or fewer colonies, read-out: MFC (Minimum fungicidal concentration).
Description: as §1, §2, §3, §4, §5

Where [3] appears, read: Tables 2-7, three or fewer colonies.
[4] abbreviates: Table 1, three or fewer colonies.

Values after ≈ are worked out from the molar mass of the structure shown. Structures can show the parent of a compound that is named as a salt. Where two headings read alike, the source gives them in different places.

On to `N=C(N)c1ccc(OCCOc2ccc(C(=N)N)cc2)cc1` [Compound 1], for which the MIC is above 100 µg/mL in assay [1] (35° C., 72 hr) and 3.12 µg/mL (≈ 10.5 µM) in assay [2] (35° C., reading at 48 hours). Moreover, in assay [2], the MFC worked out at 100 µg/mL (≈ 335 µM).
As to `N=C(N)c1ccc2nc(C=Cc3nc4ccc(C(=N)N)cc4[nH]3)[nH]c2c1` [Compound 32], the MIC in assay [1] (35° C., 72 hr) amounted to 1.56 µg/mL (≈ 4.53 µM); in assay [2] (35° C., reading at 48 hours) it was 6.25 µg/mL (≈ 18.1 µM). Further, the MFC worked out at 3.12 µg/mL (≈ 9.06 µM) in assay [1] (setting [3]) and 12.5 µg/mL (≈ 36.3 µM) in assay [2].
The like results for `N=C(N)c1cccc(-c2ccc(-c3cccc(C(=N)N)c3)o2)c1` [Compound 38] were, in that order, 3.12 µg/mL (≈ 10.3 µM), 50 µg/mL (≈ 164 µM), 25 µg/mL (≈ 82.1 µM) and 100 µg/mL (≈ 329 µM).
As to `NC(=NO)c1ccc(OCCCOc2ccc(C(N)=NO)cc2)cc1` [Compound 5], the MIC was above 100 µg/mL in assay [1] (35° C., 72 hr) and above 100 µg/mL in assay [2] (35° C., reading at 48 hours).
With `N=C(N)c1ccc2nc(-c3ccc4oc(-c5nc6ccc(C(=N)N)cc6[nH]5)cc4c3)[nH]c2c1` [Compound 55, 2,5-Bis[2-(5-amidino)benzimidazoyl]benzo[b]furan hydrochloride], the MIC in assay [1] (35° C., 72 hr) was found to be 0.19 µg/mL; in assay [2] (35° C., reading at 48 hours), 0.39 µg/mL. The MFC in assay [1] (setting [3]) turned out to be 0.19 µg/mL; in assay [2], 0.78 µg/mL.
For the molecule `N=C(N)c1ccc(OCCCCOc2ccc(C(=N)N)cc2N)c(N)c1` [Compound 13], the MIC in assay [1] (35° C., 72 hr) is 12.5 µg/mL (≈ 35.1 µM); in assay [2] (35° C., reading at 48 hours) it was 6.25 µg/mL (≈ 17.5 µM). The MFC in assay [1] (setting [4]) is 50 µg/mL (≈ 140 µM).
With `COc1ccc(-c2nc3ccc(C4=NCCN4)cc3[nH]2)cc1` [Compound 59], the MIC was found to be 50 µg/mL (≈ 171 µM) in assay [1] (35° C., 72 hr) and 25 µg/mL (≈ 85.5 µM) in assay [2] (35° C., reading at 48 hours). For the same molecule, in assay [1] (setting [3]), the MFC is 100 µg/mL (≈ 342 µM).
`N=C(N)c1ccc(OCCCCCOc2ccc(C(=N)N)cc2Cl)c(Cl)c1` [Compound 17]: the MIC in assay [1] (35° C., 72 hr) worked out at 1.56 µg/mL (≈ 3.81 µM); in assay [2] (35° C., reading at 48 hours), 3.12 µg/mL (≈ 7.62 µM). In addition, the MFC in assay [1] (setting [4]) is 3.12 µg/mL (≈ 7.62 µM); in assay [2] it was 6.25 µg/mL (≈ 15.3 µM).
As to `N=C(N)c1ccc2nc(CCc3nc4ccc(C(=N)N)cc4[nH]3)[nH]c2c1` [Compound 30], the MIC in assay [1] (35° C., 72 hr) is 6.25 µg/mL (≈ 18 µM); in assay [2] (35° C., reading at 48 hours), 12.5 µg/mL (≈ 36.1 µM). Moreover, the MFC in assay [1] (setting [3]) turned out to be 25 µg/mL (≈ 72.2 µM); in assay [2], 50 µg/mL (≈ 144 µM).
As to `c1cc(-c2nc3ccc(C4=NCCN4)cc3[nH]2)ccc1C1=NCCN1` [Compound 62], the MIC in assay [1] (35° C., 72 hr) is 50 µg/mL (≈ 151 µM); in assay [2] (35° C., reading at 48 hours), 50 µg/mL (≈ 151 µM). The MFC in assay [2] is above 100 µg/mL.
Take `N=C(N)c1ccc2nc(Cc3nc4ccc(C(=N)N)cc4[nH]3)[nH]c2c1` [Compound 28]: the MIC in assay [1] (72 h) and in assay [2] (48 h) was above 100 µg/mL throughout.
Regarding `N=C(N)c1ccc2nc(-c3ccc(O)cc3)[nH]c2c1` [Compound 61], the MIC in assay [1] (35° C., 72 hr) was above 100 µg/mL; in assay [2] (35° C., reading at 48 hours), above 100 µg/mL. Moreover, the MFC in assay [1] (setting [3]) was above 100 µg/mL.
In the case of `N=C(N)c1ccc(OCCOc2ccc(C(=N)N)cc2N)c(N)c1` [Compound 2], the MIC in assay [1] (35° C., 72 hr) was above 100 µg/mL; in assay [2] (35° C., reading at 48 hours), 25 µg/mL (≈ 76.1 µM).
In the same order, the values of `CN(C)CCCNC(=O)c1ccc(-c2ccc(-c3ccc(C(=O)NCCCN(C)C)cc3)o2)cc1` [Compound 35] are above 100 µg/mL and above 100 µg/mL.
With `CN1CCN=C1c1ccc(OCCCCOc2ccc(C3=NCCN3C)cc2)cc1` [Compound 15], the MIC in assay [1] (35° C., 72 hr) was above 100 µg/mL; in assay [2] (35° C., reading at 48 hours), above 100 µg/mL. Further, the MFC in assay [1] (setting [4]) and in assay [2] was above 100 µg/mL in each case.
With `CC(C)NC(=N)c1ccc2nc(-c3ccc(CCc4ccc(-c5nc6ccc(C(=N)NC(C)C)cc6[nH]5)cc4)cc3)[nH]c2c1` [Compound 53, 4,4'-Bis[2-(5-N-isopropylamidino)benzimidazoyl]-1,2-diphenylethane hydrochloride], the MIC was 0.39 µg/mL in assay [1] (35° C., 72 hr) and 1.56 µg/mL in assay [2] (35° C., reading at 48 hours). Also, the MFC in assay [1] (setting [3]) worked out at 0.78 µg/mL; in assay [2], 6.25 µg/mL.
Take `CN(C)CCNC(=N)c1cccc(-c2ccc(-c3cccc(C(=N)NCCN(C)C)c3)o2)c1` [Compound 41]: the MIC in assay [1] (35° C., 72 hr) is 12.5 µg/mL (≈ 28 µM); in assay [2] (35° C., reading at 48 hours), above 100 µg/mL. Moreover, the MFC in assay [1] (setting [3]) came out at 50 µg/mL (≈ 112 µM).
In the case of `N=C(N)c1ccc(OCCC(O)CCOc2ccc(C(=N)N)cc2)cc1` (stereo not drawn) [Compound 22], the MIC in assay [1] (35° C., 72 hr) stood at 12.5 µg/mL (≈ 35.1 µM); in assay [2] (35° C., reading at 48 hours), 12.5 µg/mL (≈ 35.1 µM). The MFC in assay [1] (setting [3]) and in assay [2] was 12.5 µg/mL (≈ 35.1 µM) each time.
Regarding `c1cc(-c2nc3ccc(C4=NCCCN4)cc3[nH]2)ccc1C1=NCCCN1` [Compound 63], the MIC in assay [1] (35° C., 72 hr) is 25 µg/mL (≈ 69.7 µM); in assay [2] (35° C., reading at 48 hours), 50 µg/mL (≈ 139 µM). Further, the MFC in assay [1] (setting [3]) was determined as 50 µg/mL (≈ 139 µM); in assay [2], 100 µg/mL (≈ 279 µM).
`CN(CCCNC(=O)c1ccc(-c2ccc(-c3ccc(C(=O)NCCCN(C)c4ccccc4)cc3)o2)cc1)c1ccccc1` [Compound 36]: the MIC was above 100 µg/mL in assay [1] (35° C., 72 hr) and above 100 µg/mL in assay [2] (35° C., reading at 48 hours).
With `N=C(N)c1ccc(-c2nc3ccc(C(=N)N)cc3[nH]2)cc1` [Compound 60], the MIC in assay [1] (35° C., 72 hr) came out at 25 µg/mL (≈ 89.8 µM); in assay [2] (35° C., reading at 48 hours), 100 µg/mL (≈ 359 µM). In addition, the MFC in assay [1] (setting [3]) is 50 µg/mL (≈ 180 µM); in assay [2] it was above 100 µg/mL.
As for `N=C(N)c1cccc(OCCCCCCOc2cccc(C(=N)N)c2)c1` [Compound 19], the MIC was 6.25 µg/mL (≈ 17.6 µM) in assay [1] (35° C., 72 hr) and 1.58 µg/mL (≈ 4.46 µM) in assay [2] (35° C., reading at 48 hours). Also, the MFC in assay [1] (setting [4]) and in assay [2] was 12.5 µg/mL (≈ 35.3 µM) throughout.
With `N=C(N)c1cccc(OCCCCOc2cccc(C(=N)N)c2)c1` [Compound 16], the MIC came out at 25 µg/mL (≈ 76.6 µM) in assay [1] (35° C., 72 hr) and 12.5 µg/mL (≈ 38.3 µM) in assay [2] (35° C., reading at 48 hours). The MFC in assay [1] (setting [4]) and in assay [2] was 25 µg/mL (≈ 76.6 µM) throughout.
`N=C(N)c1ccc(OCCCOc2ccc(C(=N)N)cc2)cc1` [Compound 3]: the MIC in assay [1] (35° C., 72 hr) is 6.25 µg/mL (≈ 20 µM); in assay [2] (35° C., reading at 48 hours) it was 3.12 µg/mL (≈ 9.99 µM). The MFC came to 6.25 µg/mL (≈ 20 µM) in assay [1] (setting [4]) and 3.12 µg/mL (≈ 9.99 µM) in assay [2].
On to `N=C(N)c1ccc(NCCCNc2ccc(C(=N)N)cc2)cc1` [Compound 8], for which the MIC in assay [1] (35° C., 72 hr) was 1.56 µg/mL (≈ 5.03 µM); in assay [2] (35° C., reading at 48 hours) it was 0.19 µg/mL (≈ 0.612 µM). The MFC in assay [1] (setting [4]) is 6.25 µg/mL (≈ 20.1 µM); in assay [2], 0.39 µg/mL (≈ 1.26 µM).

The values above are taken from US6326395A, “Antifungal activity of dicationic molecules” (priority 1999, dated 2001).
